# Results as given in paper PMC4503722, “Novel Phenotypic Outcomes Identified for a Public Collection of Approved Drugs from a Publicly Accessible Panel of Assays” (PLoS ONE, 2015).
# Where two headings read alike, the source gives them in different places.
# B1: Pegfilgrastim: Drug A generic name in the FAERS table (protein, UniProt P09919 31-207, looked up)
# Granulocyte …: TPLGPASSLPQSFLLKCLEQVRKIQGDGAALQEKLVSECATYKLCHPEELVLLGHSLGIPWAPLSSCPSQALQLAGCLSQLHSGLFLYQGLLQALEGISPELGPTLDTLQLDVADFATTIWQQMEELGMAPALQPTQGAMPAFASAFQRRAGGVLVASHLQSFLEVSYRVLRHLAQP
# modifications: pegfilgrastim; PEG; N-terminal Met
# Key:
# [1] = FAERS, ref [45], cited from earlier work; for Adjusted Z-Score: Drug A with vs without methotrexate; for # of Specific AE Occurrence With Drug A With Drug B: with methotrexate; for # of Specific AE Occurrence With Drug A Without Drug B: without methotrexate
# HCT116 = experiment: cells; format: cell-based; conditions: for IC50: Homo sapiens
# NCI-H716 cells = experiment: cells; format: cell-based, Human; conditions: for EC50: Homo sapiens
# INS-1E cells [2] = experiment: cells; format: cell-based, rat
# [3] = test system: nuclear β-catenin in C2C12 cells; experiment: cells; format: cell-based; conditions: Mus musculus
# [4] = test system: HCT116 cells treated with a GSK3β inhibitor; experiment: cells; format: cell-based; conditions: Homo sapiens
# DLD-1 = experiment: cells; format: cell-based; conditions: for IC50: Homo sapiens
# SW480 = experiment: cells; format: cell-based; conditions: for IC50: Homo sapiens
# HeLa cells = experiment: cells; format: cell-based; conditions: for EC50: Homo sapiens, HeLa, read-out: CellCycle G2/M
# INS-1E cells [5] = format: cell-based, rat; conditions: assay number 9; 0.1 mM glucose
# [6] = test system: tonic K+ channel activity in INS-1E cells; experiment: cells; format: cell-based, rat; conditions: for 0.1mMGluc_INS1E FluxOR IC50/EC50: assay number 10, 0.1 mM glucose
# STC-1 cell line = format: cell-based, mouse; conditions: assay number 13
# Colo320 = experiment: cells; format: cell-based; conditions: for IC50: Homo sapiens
# RKO = experiment: cells; format: cell-based; conditions: for IC50: Homo sapiens, RKO
# SNU-C1 = experiment: cells; format: cell-based; conditions: for IC50: Homo sapiens
# HT-29 = experiment: cells; format: cell-based; conditions: for IC50: Homo sapiens
# hJAK2 = target: T1, hJAK2 (Homo sapiens, UniProt O60674); experiment: Cerep LANCE kinase assay hJAK2 (S1 assay 33); format: biochemical; conditions: kinase assay; read-out: JAK2
# T1 construct: purchased Cerep (LANCE kinase assay platform, contract assay)
# T1 sequence (O60674 whole entry): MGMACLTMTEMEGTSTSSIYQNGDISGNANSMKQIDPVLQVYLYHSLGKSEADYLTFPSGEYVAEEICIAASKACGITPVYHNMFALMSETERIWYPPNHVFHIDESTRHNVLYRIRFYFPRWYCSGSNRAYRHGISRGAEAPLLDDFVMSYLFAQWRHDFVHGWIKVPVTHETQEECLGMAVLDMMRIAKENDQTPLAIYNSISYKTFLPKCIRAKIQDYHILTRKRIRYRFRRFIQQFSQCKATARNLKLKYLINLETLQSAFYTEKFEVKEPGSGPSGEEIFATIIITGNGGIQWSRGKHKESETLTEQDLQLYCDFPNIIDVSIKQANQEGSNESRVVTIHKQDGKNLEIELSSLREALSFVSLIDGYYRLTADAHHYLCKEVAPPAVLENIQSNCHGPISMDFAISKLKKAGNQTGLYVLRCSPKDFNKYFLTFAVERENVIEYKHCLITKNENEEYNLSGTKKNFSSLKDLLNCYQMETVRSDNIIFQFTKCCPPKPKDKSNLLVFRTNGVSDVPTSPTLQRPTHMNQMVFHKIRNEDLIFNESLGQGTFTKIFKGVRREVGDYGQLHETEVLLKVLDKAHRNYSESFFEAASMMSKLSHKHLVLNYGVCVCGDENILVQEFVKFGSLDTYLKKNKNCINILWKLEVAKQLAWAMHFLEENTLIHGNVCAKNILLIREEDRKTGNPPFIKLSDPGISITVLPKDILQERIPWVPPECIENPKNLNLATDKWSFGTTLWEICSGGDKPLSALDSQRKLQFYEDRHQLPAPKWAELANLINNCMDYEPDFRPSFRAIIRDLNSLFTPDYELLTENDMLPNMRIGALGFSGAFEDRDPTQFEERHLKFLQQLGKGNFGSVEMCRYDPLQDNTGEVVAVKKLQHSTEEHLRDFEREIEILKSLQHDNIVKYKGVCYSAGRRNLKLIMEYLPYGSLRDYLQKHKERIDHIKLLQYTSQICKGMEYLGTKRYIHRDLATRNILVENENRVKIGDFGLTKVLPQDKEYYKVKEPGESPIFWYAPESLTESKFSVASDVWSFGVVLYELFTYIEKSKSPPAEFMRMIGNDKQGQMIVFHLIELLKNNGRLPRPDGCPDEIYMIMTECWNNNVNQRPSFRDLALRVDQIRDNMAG
# hGSK3b = target: T2, hGSK3b (Homo sapiens, UniProt P49841); experiment: Cerep LANCE kinase assay hGSK3b (S1 assay 34); format: biochemical; conditions: kinase assay; read-out: GSK3b
# T2 construct: purchased Cerep (LANCE kinase assay platform, contract assay)
# T2 sequence (P49841 whole entry): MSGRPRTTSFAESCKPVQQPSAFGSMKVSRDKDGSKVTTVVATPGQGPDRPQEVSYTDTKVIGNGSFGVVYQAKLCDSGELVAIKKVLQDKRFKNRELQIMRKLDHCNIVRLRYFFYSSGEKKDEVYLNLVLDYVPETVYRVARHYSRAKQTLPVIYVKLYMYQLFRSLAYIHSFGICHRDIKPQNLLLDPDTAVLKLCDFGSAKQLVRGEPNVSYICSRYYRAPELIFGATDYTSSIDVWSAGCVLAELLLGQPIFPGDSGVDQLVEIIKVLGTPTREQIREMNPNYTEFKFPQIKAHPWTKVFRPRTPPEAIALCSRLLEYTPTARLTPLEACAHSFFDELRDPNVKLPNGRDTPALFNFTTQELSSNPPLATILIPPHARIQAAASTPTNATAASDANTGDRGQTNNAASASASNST
# hKDR = target: T3, hKDR (Homo sapiens, UniProt P35968); experiment: Cerep LANCE kinase assay hKDR (S1 assay 32); format: biochemical; conditions: kinase assay; read-out: KDR
# T3 construct: purchased Cerep (LANCE kinase assay platform, contract assay)
# T3 sequence (P35968 20-1356): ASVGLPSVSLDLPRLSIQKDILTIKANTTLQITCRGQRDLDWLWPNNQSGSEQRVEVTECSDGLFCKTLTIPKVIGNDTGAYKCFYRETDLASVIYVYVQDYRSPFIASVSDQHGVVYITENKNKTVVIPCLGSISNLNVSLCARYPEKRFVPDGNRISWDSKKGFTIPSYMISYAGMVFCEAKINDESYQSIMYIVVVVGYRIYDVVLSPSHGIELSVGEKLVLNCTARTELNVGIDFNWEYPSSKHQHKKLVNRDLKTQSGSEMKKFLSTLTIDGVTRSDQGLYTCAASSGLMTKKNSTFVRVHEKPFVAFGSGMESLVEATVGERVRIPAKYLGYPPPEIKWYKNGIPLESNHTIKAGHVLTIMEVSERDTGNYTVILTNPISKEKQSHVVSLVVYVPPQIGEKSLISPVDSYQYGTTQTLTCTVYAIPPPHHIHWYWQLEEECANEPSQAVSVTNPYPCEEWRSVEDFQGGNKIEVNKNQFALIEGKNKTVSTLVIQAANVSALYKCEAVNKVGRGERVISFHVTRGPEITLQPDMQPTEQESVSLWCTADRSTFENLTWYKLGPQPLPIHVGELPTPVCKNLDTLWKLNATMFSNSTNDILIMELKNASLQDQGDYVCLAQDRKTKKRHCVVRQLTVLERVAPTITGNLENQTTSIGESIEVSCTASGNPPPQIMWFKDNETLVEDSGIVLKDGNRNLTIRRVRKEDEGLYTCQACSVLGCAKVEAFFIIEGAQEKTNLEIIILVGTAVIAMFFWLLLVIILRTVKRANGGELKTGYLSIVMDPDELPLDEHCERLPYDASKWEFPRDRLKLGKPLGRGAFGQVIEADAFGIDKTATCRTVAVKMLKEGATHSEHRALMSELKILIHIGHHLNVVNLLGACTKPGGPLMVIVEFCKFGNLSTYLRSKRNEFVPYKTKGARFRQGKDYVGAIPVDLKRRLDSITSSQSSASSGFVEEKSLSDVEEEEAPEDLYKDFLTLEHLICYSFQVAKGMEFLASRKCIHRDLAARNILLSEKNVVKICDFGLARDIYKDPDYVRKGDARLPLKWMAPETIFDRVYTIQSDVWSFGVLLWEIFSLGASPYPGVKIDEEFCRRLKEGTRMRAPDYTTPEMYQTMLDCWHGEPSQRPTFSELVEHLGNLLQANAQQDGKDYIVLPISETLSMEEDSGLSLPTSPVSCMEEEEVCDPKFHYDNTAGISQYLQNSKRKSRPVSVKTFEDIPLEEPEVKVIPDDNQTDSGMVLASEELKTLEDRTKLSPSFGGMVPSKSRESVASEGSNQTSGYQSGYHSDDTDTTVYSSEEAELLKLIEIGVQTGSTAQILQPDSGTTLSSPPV
# [7] = test system: panel of 7 colon cancer cell lines; experiment: KRAS/Wnt synthetic lethal module: selectivity ratios across the colon cancer cell line panel (sub-modules); format: cell-based
# [8] = test system: endothelial tube formation in co-cultures of ECFCs and ADSCs treated with VEGF; experiment: cells; format: cell-based, human; conditions: Homo sapiens
# [9] = test system: ECFC/ADSC co-culture cell nuclei number; conditions: human
# hFLT3 = target: T4, hFLT3 (Homo sapiens, UniProt P36888); experiment: Cerep LANCE kinase assay hFLT3 (S1 assay 35); format: biochemical; conditions: kinase assay; read-out: FLT3
# T4 construct: purchased Cerep (LANCE kinase assay platform, contract assay)
# T4 sequence (P36888 27-993): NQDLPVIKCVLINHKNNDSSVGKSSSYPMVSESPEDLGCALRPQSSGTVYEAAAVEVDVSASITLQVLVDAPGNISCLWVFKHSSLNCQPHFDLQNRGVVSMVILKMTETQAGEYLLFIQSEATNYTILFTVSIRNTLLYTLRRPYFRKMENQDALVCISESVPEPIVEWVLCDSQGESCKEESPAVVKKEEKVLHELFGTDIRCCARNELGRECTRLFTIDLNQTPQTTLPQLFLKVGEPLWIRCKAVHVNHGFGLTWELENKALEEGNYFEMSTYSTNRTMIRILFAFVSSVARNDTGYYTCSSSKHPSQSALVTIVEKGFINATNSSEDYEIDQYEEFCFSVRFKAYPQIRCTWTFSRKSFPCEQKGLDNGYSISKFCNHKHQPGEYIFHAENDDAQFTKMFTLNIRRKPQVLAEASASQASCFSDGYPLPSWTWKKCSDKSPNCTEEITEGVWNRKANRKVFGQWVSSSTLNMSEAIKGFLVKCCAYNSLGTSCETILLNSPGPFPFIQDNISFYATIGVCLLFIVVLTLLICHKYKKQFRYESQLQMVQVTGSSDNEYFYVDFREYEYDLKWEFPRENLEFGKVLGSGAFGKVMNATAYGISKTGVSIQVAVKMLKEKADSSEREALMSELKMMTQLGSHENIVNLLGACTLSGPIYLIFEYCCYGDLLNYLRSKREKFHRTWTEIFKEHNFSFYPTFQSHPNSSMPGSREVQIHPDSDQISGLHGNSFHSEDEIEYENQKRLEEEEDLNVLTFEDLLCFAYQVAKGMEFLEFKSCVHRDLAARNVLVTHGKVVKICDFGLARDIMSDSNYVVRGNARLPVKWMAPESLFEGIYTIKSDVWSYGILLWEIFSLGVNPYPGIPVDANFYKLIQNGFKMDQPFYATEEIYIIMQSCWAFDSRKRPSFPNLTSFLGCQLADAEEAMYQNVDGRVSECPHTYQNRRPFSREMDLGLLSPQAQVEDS
# hp70S6K1 (RPS6KB1) = target: T5, hp70S6K1 (RPS6KB1) (Homo sapiens, UniProt P23443); experiment: Cerep LANCE kinase assay hp70S6K1 (S1 assay 31); format: biochemical; conditions: kinase assay; read-out: p70S6K1
# T5 construct: purchased Cerep (LANCE kinase assay platform, contract assay)
# T5 sequence (P23443 whole entry): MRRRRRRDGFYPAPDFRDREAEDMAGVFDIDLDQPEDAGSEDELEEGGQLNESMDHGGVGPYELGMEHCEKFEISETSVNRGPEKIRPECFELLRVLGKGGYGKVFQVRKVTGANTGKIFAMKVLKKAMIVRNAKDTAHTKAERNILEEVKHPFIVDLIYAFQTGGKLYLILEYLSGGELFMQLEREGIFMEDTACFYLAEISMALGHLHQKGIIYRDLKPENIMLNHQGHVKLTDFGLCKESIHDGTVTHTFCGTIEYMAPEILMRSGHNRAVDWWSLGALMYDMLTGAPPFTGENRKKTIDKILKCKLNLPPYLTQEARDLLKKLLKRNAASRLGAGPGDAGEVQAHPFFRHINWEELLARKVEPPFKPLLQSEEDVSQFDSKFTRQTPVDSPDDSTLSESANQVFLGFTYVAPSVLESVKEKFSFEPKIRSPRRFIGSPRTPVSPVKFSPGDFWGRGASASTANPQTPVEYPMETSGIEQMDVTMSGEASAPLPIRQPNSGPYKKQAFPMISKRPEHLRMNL
# SUR2/Kir6.2 = conditions: read-out: SUR2/Kir6.2 inhibition IC50; cited from earlier work
# [10] = HCT-116, 72 h, read-out: HCT-116 viab. IC50
# [11] = NCI-H716, read-out: GLP1 sec. EC50
# [12] = Rattus norvegicus, INS-1E, read-out: Ins. sec. EC50
# [13] = HCT-116, 72 h, read-out: HCT-116 (GSK3β) viab. IC50
# [14] = DLD-1, 72 h, read-out: DLD-1 viab. IC50
# [15] = SW480, 72 h, read-out: SW480 viab. IC50
# 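Wherever 5mMGluc INS1E SecretionMod IC50/EC50 is given: secreted insulin quantified by homogeneous immunoassay.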
molecule,measurement,setting,value
[H]/N=C(\N/C(=N/[H])NCCCCCCNC(=N)NC(=N)Nc1ccc(Cl)cc1)Nc1ccc(Cl)cc1 [Chlorhexidine],Adjusted Z-Score,[1]; AE OSTEONECROSIS,-2.347
same,# of Specific AE Occurrence With Drug A With Drug B,[1]; AE OSTEONECROSIS,31
same,# of Specific AE Occurrence With Drug A Without Drug B,[1]; AE OSTEONECROSIS,899
COc1cccc2c1C(=O)c1c(O)c3c(c(O)c1C2=O)C[C@@](O)(C(=O)CO)C[C@@H]3O[C@H]1C[C@H](N)[C@H](O)[C@H](C)O1 [Doxorubicin],# of Specific AE Occurrence With Drug A With Drug B,[1]; AE BONE DISORDER,49
same,# of Specific AE Occurrence With Drug A Without Drug B,[1]; AE BONE DISORDER,912
N[C@@H](Cc1ccc(N(CCCl)CCCl)cc1)C(=O)O [Melphalan],IC50,"HCT116; HCT-116, basal, HCT116, read-out: Basal_Viability ATP HCT116",> 20 µM
same,EC50,"NCI-H716 cells; NCI-H716, read-out: GLP 1 Secretion",> 10 µM
same,EC50,"INS-1E cells [2]; Rattus norvegicus, INS-1E; read-out: Insulin Secretion",> 10 µM
same,Adjusted Z-Score,[1]; AE BONE DISORDER,-3.0915
same,# of Specific AE Occurrence With Drug A With Drug B,[1]; AE BONE DISORDER,0
same,# of Specific AE Occurrence With Drug A Without Drug B,[1]; AE BONE DISORDER,731
same,Adjusted Z-Score,[1]; AE OSTEOMYELITIS,-3.729
same,# of Specific AE Occurrence With Drug A With Drug B,[1]; AE OSTEOMYELITIS,9
same,# of Specific AE Occurrence With Drug A Without Drug B,[1]; AE OSTEOMYELITIS,479
same,Adjusted Z-Score,[1]; AE OSTEONECROSIS OF JAW,-3.716
same,# of Specific AE Occurrence With Drug A With Drug B,[1]; AE OSTEONECROSIS OF JAW,17
same,# of Specific AE Occurrence With Drug A Without Drug B,[1]; AE OSTEONECROSIS OF JAW,557
same,Adjusted Z-Score,[1]; AE OSTEONECROSIS,-3.771
same,# of Specific AE Occurrence With Drug A With Drug B,[1]; AE OSTEONECROSIS,1
same,# of Specific AE Occurrence With Drug A Without Drug B,[1]; AE OSTEONECROSIS,786
same,EC50,"[3]; C2C12, read-out: Wnt Pathway",> 10 µM
same,IC50,"[4]; HCT-116, HCT116 pretreated with GSK3b inhibitor, read-out: GSK3b inh pretreated_Viability ATP HCT116",15.4 µM
same,IC50,"DLD-1; basal, DLD-1, read-out: Basal_Viability ATP DLD-1",> 20 µM
same,IC50,"SW480; basal, SW480, read-out: Basal_Viability ATP SW480",> 20 µM
same,EC50,"HeLa cells; S2 Table, 20 = no response at highest concentration",5.36 µM
Clc1ccc2c(c1)CCc1cccnc1C2=C1CCNCC1 [NCGC00159325-05],hNCI-H716 GLP1 Secretion IC50/EC50,NCI-H716 cells; assay number 12,> 40 µM
same,5mMGluc_INS1E SecretionMod IC50/EC50,INS-1E cells [2]; assay number 8; 5 mM glucose,7.105 µM
same,0.1mMGluc_INS1E SecretionMod Act IC50/EC50,INS-1E cells [5],> 33.33 µM
same,0.1mMGluc_INS1E FluxOR IC50/EC50,[6],> 33.3333 µM
same,mSTC-1 GLP1 Secretion IC50/EC50,STC-1 cell line,> 40 µM
CN(C)CCOC(c1ccccc1)c1ccc(Br)cc1 (stereo not shown) [NCGC00249891-01],Basal_Viability ATP Colo 320 IC50/EC50,"Colo320; assay number 27, basal",> 20 µM
same,Basal_Viability ATP HCT116 IC50/EC50,"HCT116; assay number 25, basal",> 20 µM
same,Basal_Viability ATP RKO IC50/EC50,"RKO; assay number 29, basal",> 20 µM
same,Basal_Viability ATP SNU-C1 IC50/EC50,"SNU-C1; assay number 30, basal",3.0987 µM
same,5mMGluc_INS1E SecretionMod IC50/EC50,INS-1E cells [2]; assay number 8; 5 mM glucose,2.767 µM
same,Basal_Viability ATP HT-29 IC50/EC50,"HT-29; assay number 28, basal",17.0256 µM
same,Basal_Viability ATP DLD-1 IC50/EC50,"DLD-1; assay number 23, basal",> 20 µM
same,Basal_Viability ATP SW480 IC50/EC50,"SW480; assay number 24, basal",> 20 µM
same,Hela CellCycMod PI 2N IC50/EC50,"HeLa cells; assay number 14, 2N",> 10 µM
same,Hela CellCycMod PI S Phase IC50/EC50,"HeLa cells; assay number 15, S phase",> 10 µM
same,Hela CellCycMod PI 4N IC50/EC50,"HeLa cells; assay number 16, 4N",> 10 µM
same,Hela CellCycMod PI MI IC50/EC50,"HeLa cells; assay number 17, MI",> 10 µM
same,Hela CellCycMod PI Cell Number IC50/EC50,"HeLa cells; assay number 18, cell number",> 10 µM
same,0.1mMGluc_INS1E SecretionMod Act IC50/EC50,INS-1E cells [5],> 33.33 µM
same,0.1mMGluc_INS1E FluxOR IC50/EC50,[6],10.9665 µM
"COCc1c(C(C)C)nc(C(C)C)c(/C=C/[C@@H](O)C[C@@H](O)CC(=O)O)c1-c1ccc(F)cc1 [cerivastatin, reference compound]",IC50,"Colo320; COLO 320, 72 h, read-out: Colo320 viab. IC50",1.9 µM
same,IC50,"Colo320; COLO 320, read-out: Basal_Viability ATP Colo 320",1.92 µM
same,IC50,HCT116; [10],0.24 µM
same,IC50,"HCT116; HCT-116, read-out: Basal_Viability ATP HCT116",0.24 µM
same,IC50,"RKO; 72 h, read-out: RKO viab. IC50",1 µM
same,IC50,RKO; read-out: Basal_Viability ATP RKO,1.01 µM
same,IC50,"SNU-C1; SNU-C1, 72 h, read-out: SNU-C1 viab. IC50",1.9 µM
same,IC50,"SNU-C1; SNU-C1, read-out: Basal_Viability ATP SNU-C1",1.87 µM
same,EC50,NCI-H716 cells; [11],> 10 µM
same,IC50,hJAK2,> 20 µM
same,IC50,hGSK3b,> 20 µM
same,EC50,INS-1E cells [2]; [12],> 10 µM
same,EC50,"[3]; C2C12, read-out: Wnt pot. EC50",19.9 µM
same,IC50,"HT-29; HT-29, 72 h, read-out: HT-29 viab. IC50",1.2 µM
same,IC50,"HT-29; HT-29, read-out: Basal_Viability ATP HT-29",1.21 µM
same,IC50,hKDR,> 20 µM
same,IC50,[4]; [13],0.053 µM
same,IC50,"[4]; HCT-116, read-out: GSK3b inh pretreated_Viability ATP HCT116",0.0529 µM
same,fold potency difference KRAS mutant lines SW480 and HCT116 vs. KRAS wild-type lines Colo320 and SNU-C1,[7],5–10 fold
same,IC50,[8]; read-out: Anti-Angio IC50,0.089 µM
same,IC50,[8]; read-out: Anti-Angiogenesis,0.0894 µM
same,IC50,DLD-1; [14],2.5 µM
same,IC50,"DLD-1; DLD-1, read-out: Basal_Viability ATP DLD-1",2.51 µM
same,IC50,SW480; [15],0.14 µM
same,IC50,"SW480; SW480, read-out: Basal_Viability ATP SW480",0.143 µM
same,EC50,HeLa cells,> 10 µM
same,cytotoxicity IC50 relative to IC50 for inhibition of endothelial cord formation,[9],2–3 fold
same,IC50,hFLT3,> 20 µM
same,IC50,hp70S6K1 (RPS6KB1),> 20 µM
"CCCNCC(O)COc1ccccc1C(=O)CCc1ccccc1 (stereo not shown) [propafenone, reference compound]",IC50,HCT116; [10],> 20 µM
same,EC50,NCI-H716 cells; [11],> 10 µM
same,EC50,INS-1E cells [2]; [12],4.9 µM
same,EC50,"INS-1E cells [2]; Rattus norvegicus, INS-1E, read-out: Insulin Secretion",4.92 µM
same,IC50,[4]; [13],> 20 µM
same,IC50,[8]; read-out: Anti-Angio IC50,> 10 µM
same,IC50,DLD-1; [14],> 20 µM
same,IC50,SW480; [15],> 20 µM
same,EC50,HeLa cells,> 10 µM
same,IC50,"[6]; Rattus norvegicus, INS-1E, read-out: K+ channel assay IC50",5.4 µM
same,IC50,SUR2/Kir6.2,2.2 µM
B1,Adjusted Z-Score,[1]; AE BONE PAIN,-2.755
same,# of Specific AE Occurrence With Drug A With Drug B,[1]; AE BONE PAIN,13
same,# of Specific AE Occurrence With Drug A Without Drug B,[1]; AE BONE PAIN,641
